We go through two compounds from patent US20190008878A1, “COMPOSITIONS AND METHOD FOR REDUCING CARDIOTOXICITY” (SignPath Pharma Inc., priority 2017, published 2019).

Entries after “also recorded” stand apart in the source; their conditions may differ.

One series relates to HEK293 cells. Particulars: 20 μM, 24 h incubation; cited from earlier work.
Series [1] is described as follows: chronic sunitinib cardiotoxicity study, two 28-day cycles with or without the invention (ECG, echocardiography, arterial pressure, body weight, troponin). It is filed as in vivo, Hartley guinea pigs. The conditions noted are these: for left ventricular / cardiac hypertrophy (cardiac weight): after 86 days (2 cycles) of treatment.
A short description of series [2]: Langendorff retrograde perfusion of hearts taken on Day 86 (left ventricle contractility and kinetics). More on the design: species or system Hartley guinea pigs. The conditions noted are these: Day 86, ex vivo Langendorff. How it is done: In FIG. 5B, on Day 86, the animals were euthanized and the hearts mounted onto a Langendorff retrograde perfusion system. A left ventricular pressure transducer was inserted into the left ventricle and recorded LV contraction amplitude and kinetics.
In FIG. 6, the pressure developed by the heart on Day 86 of treatment was measured ex-vivo in a Langendorff retrograde perfusion system.

`COc1cc(/C=C/C(=O)CC(=O)/C=C/c2ccc(O)c(OC)c2)ccc1O` [curcumin]: the HEK293 cell viability entry in the series with HEK293 cells is reported as “reduced”.

For the compound `CCN(CC)CCNC(=O)c1c(C)[nH]c(/C=C2\C(=O)Nc3ccc(F)cc32)c1C` [sunitinib], the “mean arterial blood pressure” value in series [1] (Day 86, invasive femoral artery catheter, anesthetized animals, sunitinib alone compared with sunitinib plus the invention) is on record as “Significantly higher”. Moreover, the “left ventricular / cardiac hypertrophy (cardiac weight)” value in series [1] is reported as “onset of hypertrophy”; in series [1] (listed as Sunitinib), “caused cardiac hypertrophy”. The compound also came in with a QTc prolongation in series [1] (as of Day 28, increasing steadily until Day 86, sunitinib 10 mg/kg/day, Bazett correction, n=6 per group) of 15 to 25 ms. Besides, the “Troponin I levels” value in series [1] (blood, sunitinib alone compared with sunitinib plus the invention) is on record as “significantly higher”. Further, the “LV ejection velocity at the aortic valve (AoVMax)” value in series [1] (cardiac echography, over the treatment) was “lower; also recorded: gradual decrease”. Besides, the “left ventricular distension (end of diastole and end of systole)” value is given as “left-ventricular distention” in series [1] (echocardiography, over the treatment) and “greater LV distension” in series [1] (echocardiography, over the treatment, listed as Sunitinib). Further, the left-ventricular fractional shortening result in series [1] (echocardiography, difference between groups significant after 86 days) is “lower; also recorded: time-dependent loss”. Further, the “Troponin levels compared with intact animals” value in series [1] (intact animals 0.05 ng/mL (data not shown)) is recorded as “significantly greater”. In addition, the “end-systolic / developed left ventricular pressure” value in series [2] is listed as “significantly lower”. In addition, in series [2] (LV pressure transducer), the “rate of contraction of the LV” value is given as “lower”.
